Where “and” joins values, the source holds several entries; their conditions need not be identical. Identical values can stand only once.
Columns and labels:
[1] = Body weight of rats in the cataract model study; assay type: in vivo, rat; details: 10 μl 3 times/day
Description: (§1) At the age of 11-12 days after birth, all suckling rats underwent a single intraperitoneal injection of sodium selenite (30 μmol/kg, i.e., 0.1 ml/10 g) for model-building. Sodium selenite solution was configured with normal saline at a concentration of 3 mM.
(§2) At the age of 19 days after birth (D-1) of the suckling rats, 30 lens opacities were selected for a cloudy rating at Class 4 or 5; Wister suckling rats were randomly divided into 5 groups (G1-G5 groups, 6 in each group); and a cage of suckling rats as G6 was randomly selected after the animals opened their eyes (14-16 days of age).
(§3) The subject suckling rats of groups G1 to G5 were treated at the age of 20 days after birth (D1), and the specific dosing information is shown in Table 1. Treatment in the G6 group was conducted after the animals opened their eyes (14-16 days old, D-6-D-4), and the specific dosing information is shown in Table 1.

[2] = General clinical observations during 60-day eye drop administration; assay type: in vivo, rat; details: eye drops 3 times/day, 60-day administration phase, all concentrations
From the text: as §2

[3] = test system: Wistar rat cataract model induced by sodium selenite; experiment: Lens opacity score (slit lamp) in sodium selenite-induced cataract rat model; assay type: in vivo; set-up: lens opacity score, Mean / lens opacity score / lens opacity score, raw data per eye (OD/OS, rats 1-6): scale not given here
Description: A new batch of eye drops solutions was prepared every week. Placebo was a solution that contained the same excipients but without the drug compound. The eye drops solutions were prepared as follows:
3. An illustrative procedure: To a 250 mL volume flask were added 25 mg each of the excipients, sodium borate, boric acid, sodium chloride, and potassium chloride, an aspirin mimetic drug compound to be tested (e.g., DPL-004, 9.0 mg), and about 200 ml of sterilized water to form a mixture. The resultant mixture was shaken well to dissolve solids; and more sterilized water was added to bring the volume of solution to 250 mL, which was shaken well and then distributed into small portions. Each portion was labeled with a concentration of 3.6 mg/100 mL and the preparation date and was stored in a refrigerator for future use.
4. Eye drops solutions comprising DPL-004 at a concentration of 36 mg/100 mL and 12 mg/100 mL were prepared similarly according to the above procedure by using 90 mg and 30 mg of DPL-004, respectively, while maintaining the same amounts of excipients as shown above.
as §1, §2, §3
At D-1, in the fourth week of treatment, the slit lamp was used at the end of administration to observe the turbidity of the lens and grade it, and the grading and scoring criteria are shown in the following Table 2.

[4] = G3, 36 mg/0.1 L D1-D31 then 1.8 mg/0.1 L D32-D60, 10 μl 3 times/day, pH 6.5, day 60
[5] = G3, 36 mg/0.1 L, 10 μl 3 times/day, pH 6.5, day 28
[6] = G3, 36 mg/0.1 L, 10 μl 3 times/day, pH 6.5, day -1 (before administration)
[7] = G4, 12 mg/0.1 L, 10 μl 3 times/day, pH 6.5, day 28
[8] = G4, 12 mg/0.1 L, 10 μl 3 times/day, pH 6.5, day 60
[9] = G4, 12 mg/0.1 L, 10 μl 3 times/day, pH 6.5, day -1 (before administration)
[10] = G5, 3.6 mg/0.1 L, 10 μl 3 times/day, pH 6.5, day 28
[11] = G5, 3.6 mg/0.1 L, 10 μl 3 times/day, pH 6.5, day 60
[12] = G5, 3.6 mg/0.1 L, 10 μl 3 times/day, pH 6.5, day -1 (before administration)
[13] = G6 preventive dosing from D-6, 3.6 mg/0.1 L, 10 μl 3 times/day, pH 7.4, day 22
[14] = G6 preventive dosing from D-6, 3.6 mg/0.1 L, 10 μl 3 times/day, pH 7.4, day -1
[15] = G6 preventive dosing from D-6, 3.6 mg/0.1 L, 10 μl 3 times/day, pH 7.4, day -6
[16] = G6 preventive dosing from D-6, 3.6 mg/0.1 L, 10 μl 3 times/day, pH 7.4 to D31 then pH 6.0 D32-D60, day 60

Question: Which results are given for O=C(Sc1ccccc1C(=O)S)c1cccnc1 [DPL-004, 2-[(pyridine-3-carbonyl)sulfanyl]benzene-1-carbothioic S-acid]?
Answer: Body Weight, Mean ([1]; G3, 36 mg/0.1 L (D32-D60 1.8 mg/0.1 L), pH 6.5, day 4): 58.22 g; Body Weight, Mean ([1]; G3, 36 mg/0.1 L (D32-D60 1.8 mg/0.1 L), pH 6.5, day 11): 97.48 g; Body Weight, Mean ([1]; G3, 36 mg/0.1 L (D32-D60 1.8 mg/0.1 L), pH 6.5, day 18): 130.98 g; Body Weight, Mean ([1]; G3, 36 mg/0.1 L (D32-D60 1.8 mg/0.1 L), pH 6.5, day 25): 161.68 g; Body Weight, Mean ([1]; G3, 36 mg/0.1 L (D32-D60 1.8 mg/0.1 L), pH 6.5, day 32): 184.12 g; Body Weight, Mean ([1]; G3, 36 mg/0.1 L (D32-D60 1.8 mg/0.1 L), pH 6.5, day 39): 210.05 g; Body Weight, Mean ([1]; G3, 36 mg/0.1 L (D32-D60 1.8 mg/0.1 L), pH 6.5, day 46): 232.55 g; Body Weight, Mean ([1]; G3, 36 mg/0.1 L (D32-D60 1.8 mg/0.1 L), pH 6.5, day 53): 256.08 g; Body Weight, Mean ([1]; G3, 36 mg/0.1 L (D32-D60 1.8 mg/0.1 L), pH 6.5, day 60): 273.13 g; Body Weight, Mean ([1]; G3, 36 mg/0.1 L (D32-D60 1.8 mg/0.1 L), pH 6.5, day -1 (before administration)): 45.68 g; Body Weight, Mean ([1]; G4, 12 mg/0.1 L, pH 6.5, day 4): 59.37 g; Body Weight, Mean ([1]; G4, 12 mg/0.1 L, pH 6.5, day 11): 98.03 g; Body Weight, Mean ([1]; G4, 12 mg/0.1 L, pH 6.5, day 18): 138.57 g; Body Weight, Mean ([1]; G4, 12 mg/0.1 L, pH 6.5, day 25): 166.05 g; Body Weight, Mean ([1]; G4, 12 mg/0.1 L, pH 6.5, day 32): 188.40 g; Body Weight, Mean ([1]; G4, 12 mg/0.1 L, pH 6.5, day 39): 209.05 g; Body Weight, Mean ([1]; G4, 12 mg/0.1 L, pH 6.5, day 46): 232.02 g; Body Weight, Mean ([1]; G4, 12 mg/0.1 L, pH 6.5, day 53): 240.18 g; Body Weight, Mean ([1]; G4, 12 mg/0.1 L, pH 6.5, day 60): 269.85 g; Body Weight, Mean ([1]; G4, 12 mg/0.1 L, pH 6.5, day -1 (before administration)): 46.10 g; Body Weight, Mean ([1]; G5, 3.6 mg/0.1 L, pH 6.5, day 4): 60.25 g; Body Weight, Mean ([1]; G5, 3.6 mg/0.1 L, pH 6.5, day 11): 101.48 g; Body Weight, Mean ([1]; G5, 3.6 mg/0.1 L, pH 6.5, day 18): 149.00 g; Body Weight, Mean ([1]; G5, 3.6 mg/0.1 L, pH 6.5, day 25): 188.37 g; Body Weight, Mean ([1]; G5, 3.6 mg/0.1 L, pH 6.5, day 32): 230.95 g; Body Weight, Mean ([1]; G5, 3.6 mg/0.1 L, pH 6.5, day 39): 257.97 g; Body Weight, Mean ([1]; G5, 3.6 mg/0.1 L, pH 6.5, day 46): 304.65 g; Body Weight, Mean ([1]; G5, 3.6 mg/0.1 L, pH 6.5, day 53): 323.03 g; Body Weight, Mean ([1]; G5, 3.6 mg/0.1 L, pH 6.5, day 60): 343.05 g; Body Weight, Mean ([1]; G5, 3.6 mg/0.1 L, pH 6.5, day -1 (before administration)): 45.40 g; Body Weight, Mean ([1]; G6 preventive dosing from D-6, 3.6 mg/0.1 L, pH 7.4 (D32-D60 pH 6.0), day 4): 62.15 g; Body Weight, Mean ([1]; G6 preventive dosing from D-6, 3.6 mg/0.1 L, pH 7.4 (D32-D60 pH 6.0), day 11): 106.70 g; Body Weight, Mean ([1]; G6 preventive dosing from D-6, 3.6 mg/0.1 L, pH 7.4 (D32-D60 pH 6.0), day 18): 140.92 g; Body Weight, Mean ([1]; G6 preventive dosing from D-6, 3.6 mg/0.1 L, pH 7.4 (D32-D60 pH 6.0), day 25): 171.78 g; Body Weight, Mean ([1]; G6 preventive dosing from D-6, 3.6 mg/0.1 L, pH 7.4 (D32-D60 pH 6.0), day 32): 211.43 g; Body Weight, Mean ([1]; G6 preventive dosing from D-6, 3.6 mg/0.1 L, pH 7.4 (D32-D60 pH 6.0), day 39): 251.03 g; Body Weight, Mean ([1]; G6 preventive dosing from D-6, 3.6 mg/0.1 L, pH 7.4 (D32-D60 pH 6.0), day 46): 283.27 g; Body Weight, Mean ([1]; G6 preventive dosing from D-6, 3.6 mg/0.1 L, pH 7.4 (D32-D60 pH 6.0), day 53): 303.65 g; Body Weight, Mean ([1]; G6 preventive dosing from D-6, 3.6 mg/0.1 L, pH 7.4 (D32-D60 pH 6.0), day 60): 330.03 g; Body Weight, Mean ([1]; G6 preventive dosing from D-6, 3.6 mg/0.1 L, pH 7.4 (D32-D60 pH 6.0), day -1): 45.27 g; Body Weight, Mean ([1]; G6 preventive dosing from D-6, 3.6 mg/0.1 L, pH 7.4 (D32-D60 pH 6.0), day -6): 35.83 g; abnormal symptoms (activity status, body weight, skin hair, secretion morphology and color) [2]: no abnormal symptoms; lens opacity score, Mean [3, 4]: 2.75; lens opacity score, raw data per eye (OD/OS, rats 1-6) [3, 4]: 2 and 3 and 4; lens opacity score, Mean [3, 5]: 3.58; lens opacity score, raw data per eye (OD/OS, rats 1-6) [3, 5]: 3 and 4; lens opacity score, Mean [3, 6]: 4.00; lens opacity score, raw data per eye (OD/OS, rats 1-6) [3, 6]: 4; lens opacity score, Mean [3, 7]: 3.50; lens opacity score, raw data per eye (OD/OS, rats 1-6) [3, 7]: 3 and 4; lens opacity score, Mean [3, 8]: 2.58; lens opacity score, raw data per eye (OD/OS, rats 1-6) [3, 8]: 2 and 3 and 4; lens opacity score, Mean [3, 9]: 4.00; lens opacity score, raw data per eye (OD/OS, rats 1-6) [3, 9]: 4; Efficacy (reduction of lens opacity score vs placebo G2) ([3]; G4, 12 mg/0.1 L, pH 6.5, D28): 4.63%; Efficacy (reduction of lens opacity score vs placebo G2) ([3]; G4, 12 mg/0.1 L, pH 6.5, D60): 14.0%; lens opacity score, Mean [3, 10]: 3.42; lens opacity score, raw data per eye (OD/OS, rats 1-6) [3, 10]: 4 and 3; lens opacity score, Mean [3, 11]: 2.58; lens opacity score, raw data per eye (OD/OS, rats 1-6) [3, 11]: 3 and 4 and 2; lens opacity score, Mean [3, 12]: 4.00; lens opacity score, raw data per eye (OD/OS, rats 1-6) [3, 12]: 4; Efficacy (reduction of lens opacity score vs placebo G2) ([3]; G5, 3.6 mg/0.1 L, pH 6.5, D28): 6.81%; Efficacy (reduction of lens opacity score vs placebo G2) ([3]; G5, 3.6 mg/0.1 L, pH 6.5, D60): 14.0%; lens opacity score ([3]; G6 early intervention, 3.6 mg/0.1 L, pH 7.4, in the period of 28 days): 4.0; lens opacity score, Mean [3, 13]: 4.00; lens opacity score, raw data per eye (OD/OS, rats 1-6) [3, 13]: 4; lens opacity score, Mean [3, 14]: 4.00; lens opacity score, raw data per eye (OD/OS, rats 1-6) [3, 14]: 4; lens opacity score, Mean [3, 15]: 4.00; lens opacity score, raw data per eye (OD/OS, rats 1-6) [3, 15]: 4; lens opacity score, Mean [3, 16]: 3.08; lens opacity score, raw data per eye (OD/OS, rats 1-6) [3, 16]: 4 and 3 and 2; effect on cataract in the rat model (in words) ([3]; eye drops, rat model): gradually reversing cataracts
